The logP is a log measure of how a compound divides between an organic and an aqueous phase. Read a low logP as lower lipophilicity. Take `O=C(O)CCCCCc1ccc2c(c1O)C(=O)c1c(O)cccc1C2`: the logP is 4.6.

In turn, `O=C1c2c(O)cccc2Cc2ccc(C(CCc3ccccc3)C(=O)O)c(O)c21` (stereo not drawn) came in with a logP of 4.33.

`COC(=O)CCCc1ccc2c(c1O)C(=O)c1c(O)cccc1C2` had a lipophilicity (logP) of 4.63. Next, `COC(=O)c1ccc(C(=O)c2ccc3c(c2O)C(=O)c2c(O)cccc2C3)cc1`: 5.22; `COC(=O)CCc1ccc2c(c1O)C(=O)c1c(O)cccc1C2`: 4.55. As to `O=C(O)CCc1ccc2c(c1O)C(=O)c1c(O)cccc1C2`, the logP amounted to 3.78. Next, `COC(=O)C(CCc1ccccc1)c1ccc2c(c1O)C(=O)c1c(O)cccc1C2` (stereo not drawn): 5.17; `CC(C(=O)O)C(C)c1ccc2c(c1O)C(=O)c1c(O)cccc1C2` (stereo not drawn): 3.9. `COC(=O)Cc1ccc2c(c1O)C(=O)c1c(O)cccc1C2`: the logP turned out to be 3.93.

The compound `CC(C(=O)O)c1ccc2c(c1O)C(=O)c1c(O)cccc1C2` (stereo not drawn) returned a logP of 3.4.

In the case of `COC(=O)CCCCc1ccc2c(c1O)C(=O)c1c(O)cccc1C2`, the logP was 4.97.

Compound `COC(=O)C(Cc1ccccc1)c1ccc2c(c1O)C(=O)c1c(O)cccc1C2` (stereo not drawn) came in with a logP of 4.86. This logP and that of the compound before are within 0.2 log units of each other. As to `COC(=O)CCCCCc1ccc2c(c1O)C(=O)c1c(O)cccc1C2`, the logP came to 5.34.

On to `O=C1c2c(O)cccc2Cc2ccc(C(Cc3ccccc3)C(=O)O)c(O)c21` (stereo not drawn), for which the logP stood at 4.11. For the compound `COC(=O)C(C)C(C)c1ccc2c(c1O)C(=O)c1c(O)cccc1C2` (stereo not drawn), the logP amounted to 4.77.

With `O=C(O)CCCc1ccc2c(c1O)C(=O)c1c(O)cccc1C2`, the log partition coefficient (logP) was determined as 3.91.

With `O=C(O)CCCCc1ccc2c(c1O)C(=O)c1c(O)cccc1C2`, the log partition coefficient (logP) worked out at 4.22. `COC(=O)C(C)c1ccc2c(c1O)C(=O)c1c(O)cccc1C2` (stereo not drawn) yielded a logP of 4.16.
